# Experimental data as given in patent US8193189B2, “Quinoxaline derivatives as tyrosine kinase activity inhibitors” (Novartis AG, priority 2007, dated 2012).
# Key:
# GST-JAK2(808-1132) = molecular target: T1, GST-JAK2(808-1132) (Homo sapiens, UniProt O60674); assay: EPK JAK-family kinases profiling assay (Caliper mobility shift), JAK2; assay type: biochemical; conditions: ATP 20 μM
# T1 construct: GST-JAK2(808-1132); purchased Invitrogen (Carlsbad, USA) #4288
# Summary of the method: (§1)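 Turnover was read as substrate/product ratio after mobility-shift capillary-like separation of each reaction, run for 60 min at 30 °C with GST-tagged kinase domain, labelled peptide and ATP, and terminated with EDTA stop buffer.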
# GST-JAK1(866-1154) = molecular target: T2, GST-JAK1(866-1154) (Homo sapiens, UniProt P23458); assay: EPK JAK-family kinases profiling assay (Caliper mobility shift), JAK1; assay type: biochemical; conditions: ATP 40 μM, 50 nM kinase
# T2 construct: GST-JAK1(866-1154); made in house
# T2 sequence (P23458 866-1154): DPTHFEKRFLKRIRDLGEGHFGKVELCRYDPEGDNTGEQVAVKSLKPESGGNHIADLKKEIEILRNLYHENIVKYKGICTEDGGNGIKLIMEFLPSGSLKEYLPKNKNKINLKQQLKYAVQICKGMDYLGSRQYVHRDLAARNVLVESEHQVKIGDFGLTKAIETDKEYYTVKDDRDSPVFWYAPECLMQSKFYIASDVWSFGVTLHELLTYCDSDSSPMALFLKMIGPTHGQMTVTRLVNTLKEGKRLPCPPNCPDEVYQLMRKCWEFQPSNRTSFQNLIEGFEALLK
# Summary of the method: as §1
# GST-TYK2(888-1187) = molecular target: T3, GST-TYK2(888-1187) (Homo sapiens, UniProt P29597); assay: EPK JAK-family kinases profiling assay (Caliper mobility shift), TYK2; assay type: biochemical; conditions: ATP 30 μM, 40 nM kinase
# T3 construct: GST-TYK2(888-1187); made in house
# T3 sequence (P29597 888-1187): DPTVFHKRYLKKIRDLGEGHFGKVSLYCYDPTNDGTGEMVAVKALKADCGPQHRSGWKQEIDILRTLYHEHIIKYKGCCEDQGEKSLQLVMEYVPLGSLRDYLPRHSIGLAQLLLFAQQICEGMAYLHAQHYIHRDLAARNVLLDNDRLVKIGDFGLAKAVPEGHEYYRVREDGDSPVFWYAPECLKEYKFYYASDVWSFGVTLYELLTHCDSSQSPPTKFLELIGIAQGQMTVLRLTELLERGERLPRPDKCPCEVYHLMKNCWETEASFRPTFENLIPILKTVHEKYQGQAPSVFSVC
# Source text: All four kinases of the JAK-family kinases were used as purified recombinant GST-fusion proteins, containing the active kinase domains. GST-JAK1(866-1154), GST-JAK3(811-1124), and GST-TYK2(888-1187) were expressed and purified by affinity chromatography at the EPK biology unit. GST-JAK2(808-1132) was purchased from Invitrogen (Carlsbad, USA, #4288).
# The kinase assays were based on the Caliper mobility shift assay using the LabChip 3000 systems. This technology is similar to capillary electrophoresis and uses charge driven separation of substrate and product in a microfluidic chip.
# All kinase reactions were performed in 384 well microtiter plates in a total reaction volume of 18 μl. The assay plates were prepared with 0.1 μl per well of test compound in the appropriate test concentration, as described under the section “preparation of compound dilutions”. The reactions were started by combining 9 μl of substrate mix (consisting of peptide and ATP) with 9 μl of kinase dilution. The reactions were incubated for 60 minutes at 30° C. and stopped by adding 70 μl of stop buffer (100 mM Hepes, 5% DMSO, 0.1% Coating reagent, 10 mM EDTA, 0.015% Brij 35).
# Fluorescently labeled synthetic peptides were used as substrates in all reactions. […] Specific assay conditions are described in Table 1:
# The terminated reactions were transferred to the Caliper LabChip 3000 reader and the turnover of each reaction was measured by determining the substrate/product ratio.
# Test compounds were dissolved in DMSO (10 mM) and transferred into 1.4 mL flat bottom or V-shaped Matrix tubes carrying a unique 2D matrix chip by individual compound hubs. The numbers of these chips were distinctively linked to the individual compound identification numbers. The stock solutions were stored at −20° C. if not used immediately. For the test procedure the vials were defrosted and identified by a scanner whereby a working sheet was generated that guided the subsequent working steps.
# Compound dilutions were made in 96 well plates. This format enabled the assay of maximally 40 individual test compounds at 8 concentrations (single points) including 4 reference compounds. The dilution protocol included the production of pre-dilution plates, master plates and assay plates:
# Pre-dilution plates: 96 polypropylene well plates were used as pre-dilution plates. A total of 4 pre-dilution plates were prepared including 10 test compounds each on the plate positions A1-A10, one standard compound at A11 and one DMSO control at A12. All dilution steps were done on a HamiltonSTAR robot.
# Master plates: 100 μL of individual compound dilutions including standard compound and controls of the 4 “pre-dilution plates” were transferred into a 384 “master plate” including the following concentrations 1′820, 564, 182, 54.6, 18.2, 5.46, 1.82 and 0.546 μM, respectively in 90% of DMSO.
# Assay plates: Identical assay plates were then prepared by pipetting 100 nL each of compound dilutions of the master plates into 384-well “assay plates”. […] The preparation of the master plates were handled by the Matrix PlateMate Plus robot and replication of assay plates by the HummingBird robot.
# GST-JAK3(811-1124) = molecular target: T4, GST-JAK3(811-1124) (Homo sapiens, UniProt P52333); assay: EPK JAK-family kinases profiling assay (Caliper mobility shift), JAK3; assay type: biochemical; conditions: ATP 80 μM, 6 nM kinase
# T4 construct: GST-JAK3(811-1124); made in house
# T4 sequence (P52333 811-1124): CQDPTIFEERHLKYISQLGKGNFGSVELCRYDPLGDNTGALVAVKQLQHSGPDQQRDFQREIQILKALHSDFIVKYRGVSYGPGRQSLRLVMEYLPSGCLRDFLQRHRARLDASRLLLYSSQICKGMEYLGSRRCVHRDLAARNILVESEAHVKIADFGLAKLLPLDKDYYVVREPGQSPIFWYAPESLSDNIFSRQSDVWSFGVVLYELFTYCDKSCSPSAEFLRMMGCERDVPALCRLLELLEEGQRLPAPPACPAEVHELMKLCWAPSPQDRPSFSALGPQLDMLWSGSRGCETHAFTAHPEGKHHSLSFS
# Summary of the method: as §1
# [1] = system: JAK/STAT pathway (JAK1/JAK2-dependent nuclear translocation of STAT1-GFP); assay: Inhibition of the JAK/STAT pathway: IFN-γ stimulated nuclear translocation of STAT1-GFP in HT1080 fibrosarcoma cells; assay type: cell-based; conditions: Homo sapiens, HT-1080; HT1080 STAT1-GFP cells, 100 ng/ml IFN-γ 2 hours, compound added 30 min before; read-out: STAT1translo IC50
# Summary of the method: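 HT1080 cells stably expressing STAT1-GFP, compounds added 30 min before IFN-γ stimulation at final 10 μM down to 0.003 μM (0.1% DMSO). Nuclear-cytoplasmic GFP intensity differential quantified by automated imaging with Hoechst nuclear mask, ≥1000 cells per well, averaged per well.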
# T1 sequence (O60674 808-1132): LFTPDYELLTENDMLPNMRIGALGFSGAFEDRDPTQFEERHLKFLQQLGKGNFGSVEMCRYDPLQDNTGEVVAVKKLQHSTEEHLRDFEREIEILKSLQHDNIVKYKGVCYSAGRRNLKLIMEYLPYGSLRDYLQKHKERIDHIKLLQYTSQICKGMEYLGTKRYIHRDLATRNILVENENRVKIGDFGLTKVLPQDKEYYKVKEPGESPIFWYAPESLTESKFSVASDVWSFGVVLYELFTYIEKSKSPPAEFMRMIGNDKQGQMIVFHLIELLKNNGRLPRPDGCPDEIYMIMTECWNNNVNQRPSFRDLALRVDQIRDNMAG
SMILES,IC50 (GST-JAK2(808-1132); 1.8 nM kinase),IC50 (GST-JAK1(866-1154)),IC50 (GST-TYK2(888-1187)),IC50 (GST-JAK2(808-1132); […] kinase),IC50 (GST-JAK3(811-1124)),IC50 [1]
"Fc1cc(-c2cccc3ncc(-c4cnn(C5CCCNC5)c4)nc23)cc(F)c1CN1CCOCC1 (racemic) [Example 160, (rac)-8-(3,5-Difluoro-4-morpholin-4-ylmethyl-phenyl)-2-(1-piperidin-3-yl-1H-pyrazol-4-yl)-quinoxaline]",6.4 nM,360 nM,400 nM,,,
"COc1cc(-c2cnc3cccc(-c4ccc(CC(=O)N5CCS(=O)(=O)CC5)cc4)c3n2)cc(OC)c1OC [Example 13, 1-(1,1-Dioxido-thiomorpholin-4-yl)-2-{4-[3-(3,4,5-trimethoxy-phenyl)-quinoxalin-5-yl]-phenyl}-ethanone]",,27 nM,235 nM,5.1 nM,,
"Cc1cc(-c2cnc3cccc(-c4cc(F)c(CN5CCOCC5)c(F)c4)c3n2)ccc1C(=O)N1CCCC1 [Example 66, {4-[8-(3,5-Difluoro-4-morpholin-4-ylmethyl-phenyl)-quinoxalin-2-yl]-2-methyl-phenyl}-pyrrolidin-1-yl-methanone]",6.05 nM,140 nM,,,250 nM,1000 nM
"Cc1cc(-c2cnc3cccc(-c4ccc(CN5CCS(=O)(=O)CC5)c(Cl)c4)c3n2)ccc1C(=O)N1CCCC1 [Example 67, (4-{8-[3-Chloro-4-(1,1-dioxido-thiomorpholin-4-ylmethyl)-phenyl]-quinoxalin-2-yl}-2-methyl-phenyl)-pyrrolidin-1-yl-methanone]",< 3 nM,96.5 nM,,,405 nM,475 nM
"Cc1cc(-c2cnc3cccc(-c4ccc(C(=O)N5CCCC5)c(C)c4)c3n2)ccc1C(=O)N1CCCC1 [Example 68, (2-Methyl-4-{3-[3-methyl-4-(pyrrolidine-1-carbonyl)-phenyl]-quinoxalin-5-yl}-phenyl)-pyrrolidin-1-yl-methanone]",109 nM,2300 nM,,,6850 nM,4890 nM
"Cc1cc(-c2cnc3cccc(-c4ccc(CC(=O)N5CCS(=O)(=O)CC5)c(F)c4)c3n2)ccc1CN1CCOCC1 [Example 69, 1-(1,1-Dioxido-thiomorpholin-4-yl)-2-{2-fluoro-4-[3-(3-methyl-4-morpholin-4-ylmethyl-phenyl)-quinoxalin-5-yl]-phenyl}-ethanone]",6.7 nM,75 nM,,,890 nM,530 nM
"Cc1cc(-c2cnc3cccc(-c4ccc(CC(=O)N5CCS(=O)(=O)CC5)c(F)c4)c3n2)ccc1Cn1ccnc1 [Example 72, 1-(1,1-Dioxido-thiomorpholin-4-yl)-2-{2-fluoro-4-[3-(4-imidazol-1-ylmethyl-3-methyl-phenyl)-quinoxalin-5-yl]-phenyl}-ethanone]",5.7 nM,110 nM,,,670 nM,1120 nM
"O=C(c1ccc(-c2cccc3ncc(-c4ccc(OCCCN5CCOCC5)cc4)nc23)cc1F)N1CCS(=O)(=O)CC1 [Example 73, (1,1-Dioxido-thiomorpholin-4-yl)-(2-fluoro-4-{3-[4-(3-morpholin-4-yl-propoxy)-phenyl]-quinoxalin-5-yl}-phenyl)-methanone]",28 nM,190 nM,,,370 nM,> 10000 nM
"O=C(Cc1ccc(-c2cccc3ncc(-c4ccc(OCCCN5CCOCC5)cc4)nc23)cc1)N1CCOCC1 [Example 74, 1-Morpholin-4-yl-2-(4-{3-[4-(3-morpholin-4-yl-propoxy)-phenyl]-quinoxalin-5-yl}-phenyl)-ethanone]",25 nM,310 nM,,,1300 nM,2610 nM
"O=C(c1ccc(-c2cccc3ncc(-c4ccc(OCCCN5CCOCC5)cc4)nc23)cc1F)N1CCOCC1 [Example 75, (2-Fluoro-4-{3-[4-(3-morpholin-4-yl-propoxy)-phenyl]-quinoxalin-5-yl}-phenyl)-morpholin-4-yl-methanone]",34 nM,410 nM,,,1700 nM,> 10000 nM
"Cc1cc(-c2cnc3cccc(-c4ccc(CC(=O)N5CCOCC5)c(F)c4)c3n2)ccc1OCCCN1CCOCC1 [Example 76, 2-(2-Fluoro-4-{3-[3-methyl-4-(3-morpholin-4-yl-propoxy)-phenyl]-quinoxalin-5-yl}-phenyl)-1-morpholin-4-yl-ethanone]",59.5 nM,690 nM,,,4100 nM,5990 nM
"CCN1CCN(C(=O)c2ccc(-c3cnc4cccc(-c5ccc(C(C)(C)N6CCOCC6)c(C)c5)c4n3)cc2C)CC1 [Example 80, (4-Ethyl-piperazin-1-yl)-(2-methyl-4-{8-[3-methyl-4-(1-methyl-1-morpholin-4-yl-ethyl)-phenyl]-quinoxalin-2-yl}-phenyl)-methanone]",75 nM,3800 nM,,,4550 nM,1550 nM
"CCN1CCN(C(=O)c2ccc(-c3cnc4cccc(-c5ccc(C(C)(C)N6CCS(=O)(=O)CC6)c(C)c5)c4n3)cc2C)CC1 [Example 81, [4-(8-{4-[1-(1,1-Dioxido-thiomorpholin-4-yl)-1-methyl-ethyl]-3-methyl-phenyl}-quinoxalin-2-yl)-2-methyl-phenyl]-(4-ethyl-piperazin-1-yl)-methanone]",16.5 nM,1150 nM,,,780 nM,389 nM
"CCN1CCN(C(=O)c2ccc(-c3cnc4cccc(-c5cc(F)c(CN6CCOCC6)c(F)c5)c4n3)cc2C)CC1 [Example 82, {4-[8-(3,5-Difluoro-4-morpholin-4-ylmethyl-phenyl)-quinoxalin-2-yl]-2-methyl-phenyl}-(4-ethyl-piperazin-1-yl)-methanone]",14 nM,490 nM,,,1250 nM,946 nM
"CC(=O)N1CCC(n2cc(-c3cnc4cccc(-c5cc(F)c(CN6CCOCC6)c(F)c5)c4n3)cn2)CC1 [Example 121, 1-(4-{4-[8-(3,5-Difluoro-4-morpholin-4-ylmethyl-phenyl)-quinoxalin-2-yl]-pyrazol-1-yl}-piperidin-1-yl)-ethanone]",3.8 nM,200 nM,230 nM,,,
"Cc1cc(CN2CCOCC2)ccc1-c1cccc2ncc(-c3cnn(C4CCNCC4)c3)nc12 [Example 147, 8-(2-Methyl-4-morpholin-4-ylmethyl-phenyl)-2-(1-piperidin-4-yl-1H-pyrazol-4-yl)-quinoxaline]",97 nM,1500 nM,1000 nM,,,
"Cc1nn(C2CCNCC2)c(C)c1-c1cnc2cccc(-c3cc(F)c(CN4CCOCC4)c(F)c3)c2n1 [Example 155, 8-(3,5-Difluoro-4-morpholin-4-ylmethyl-phenyl)-2-(3,5-dimethyl-1-piperidin-4-yl-1H-pyrazol-4-yl)-quinoxaline]",63 nM,3400 nM,7600 nM,,,
